Data as given in patent US20090203720A1, “Methods for inhibiting cell growth” (priority 2003, published 2009).
Blank lines part the entries; values can stand above or below the compound they belong to.

Key:
MKK4 = MKK4 phosphorylation (stress pathway activation) by immunoblotting; assay type: cell-based; conditions: HEK293 transfected with RXR or RXR plus MKK4
Procedure: (§1) The cells were stimulated with anisomycin (50 μM) and COMPOUND-1 (10^−7 M) as indicated, then the cell lysates were subjected to immunoprecipitation and in vitro kinase assay (bottom panel).
(§2) Activation of stress pathways lead to the phosphorylation of RXR (22,23), and MKK4/SEK1 is reported to associate with and phosphorylate RXR directly (23). […] Anisomycin treatment led to phosphorylation of RXR resulting in an up-shift of the RXR band on SDS-PAGE (22).
(§3) For immunoblotting, proteins from cell lysates or immunoprecipitates were subjected to separation on SDS-PAGE (38). The resolved polypeptides were transferred to PVDF membrane and analyzed by immunoblotting (39). The targeted proteins were detected using the enhanced chemiluminescence immunodetection system (Amersham). DNA content analysis by FACS was performed on FACScan™ (Becton Dickinson) as described (40).

RXR-associated kinase = experiment: Effect of signalling pathway modulators on RXR-associated kinase activity in RXR transfected cells; assay type: cell-based; conditions: cell treatment: anisomycin 50 μM; pathway inhibitors 1 hour; insulin 30 minutes
Procedure: as §1, §2
To further study the effect of signaling transduction pathways on the RXR-associated kinase activity, RXR transfected cells were incubated with inhibitors of the PI3 kinase (wortmannin), p42/44 MAPK (PD98059), or p38 MAPK pathways (SB202190 or SB203580) for 1 hour or stimulated with insulin or 10% serum for 30 minutes. RXR complexes were then isolated and the in vitro kinase assays were performed in the usual manner.

Jurkat-pSupCK1α cells = experiment: Apoptotic populations in CK1α-suppressed Jurkat cells; assay type: cell-based; conditions: 3 days
Procedure: FIGS. 4J, 4K, 4L and 4M show effects of depletion of CK1α on Jurkat cells: A cell line (Jurkat-pSupCK1α) in which CK1α expression is suppressed by stably expressing SiRNA CK1α was generated from Jurkat cells (left panel). The effect of COMPOUND-1 (4 days) on growth inhibition of Jurkat and Jurkat-pSupCK1α cells was measured (the second panel).
Based on this observation, CK1α negative regulation RXR-mediated apoptosis. HEK293RXR and Jurkat cells were used to deplete the expression of endogenous CK1α by stably transfecting CK1α RNAi expression vector. Although the depletion of endogenous CK1α in both cell lines was not very efficient, (with a 30% to 50% decrease for the expression of CK1α achieved in both cell lines) after decreasing the CK1α expression, both cell lines were becoming very sensitive to the treatment of RXR agonist in term of the cell growth inhibition (FIGS. 4J, 4K, 4L and 4M). Apoptotic cell populations of Jurkat-pSupCK1 (containing the CK1α RNAi construct) is increased compared to the parental cell lines in the presence of RXR agonist (FIGS. 4J, 4K, 4L and 4M).

[1] = test system: DT40RXR and JurkatRXR cells; experiment: Cell death/growth inhibition in RXR-overexpressing versus parental cells; assay type: cell-based; conditions: JurkatRXR vs parental cells, 3 days
Procedure: FIGS. 1A, 1B and 1C show RXR and RXR agonist dependent cell growth inhibition: DT40, DT40RXR, Jurkat, and JurkatRXR cells (5×10^3 cells/ml) were treated with various doses of AGN19424 for 3 days (the left two panels). Viable cells were counted and were presented as percentage of control (cells without treatment).
Overexpressing activated RXR may mediate growth inhibitory effects in some human carcinoma cells (17). To confirm that the effects of RXR agonists were mediated by RXR proteins and explore the molecular mechanism, two RXR stably expression cell lines were generated using B lymphoma cell (DT40) and T lymphoma cells (Jurkat cells), which are named DT40RXR and JurkatRXR (FIG. 1A, left panel).
(§4) The sensitivity of the wild-type cells and the cells stably expressing RXR to RXR agonist treatment.

RXRα = molecular target: T1, RXRα (Homo sapiens, UniProt P19793); experiment: Ligand-dependent recruitment of protein kinase to Flag-RXRα immunocomplexes (immunoprecipitation, in vitro kinase assay); assay type: cell-based; conditions: for recruitment of protein kinase to RXR immunocomplexes: transfected HEK293 cells, ligands at 10^-6 M, 15 minutes
T1 construct: expressed in transfected cells; host or cells: HEK293
T1 sequence (P19793 1-462): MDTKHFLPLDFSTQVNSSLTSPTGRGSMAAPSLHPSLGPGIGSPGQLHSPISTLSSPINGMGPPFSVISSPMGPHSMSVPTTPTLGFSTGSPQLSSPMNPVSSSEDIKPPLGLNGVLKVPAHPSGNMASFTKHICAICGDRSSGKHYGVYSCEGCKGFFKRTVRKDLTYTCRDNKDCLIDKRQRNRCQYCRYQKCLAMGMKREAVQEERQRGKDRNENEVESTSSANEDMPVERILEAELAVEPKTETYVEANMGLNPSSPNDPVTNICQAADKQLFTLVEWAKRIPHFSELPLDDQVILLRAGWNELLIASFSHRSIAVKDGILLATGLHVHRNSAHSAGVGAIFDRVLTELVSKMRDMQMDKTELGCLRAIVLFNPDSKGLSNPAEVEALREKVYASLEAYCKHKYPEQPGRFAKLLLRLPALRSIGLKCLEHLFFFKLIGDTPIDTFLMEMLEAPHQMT
Excerpt: Total cell lysates were immunoprecipitated with anti-Flag antibody (M2). An aliquot of the immunocomplexes were used for the in vitro kinase reaction with [γ-^32P]ATP and separated on SDS-PAGE. The phosphorylated proteins were detected by autoradiography (right panel). To show the presence of equal amounts of RXR in the immunoprecipitates, additional aliquots of the immunocomplexes were subjected to immunoblotting with a polyclonal antibody (D20) against RXR (left panel).
In vitro kinase reaction assay was performed.

RXRα homodimers = experiment: Transactivation assay, pRXRE-Luc (DR-1) reporter in CV-1 cells; assay type: cell-based; conditions: 10^-8 M, 16 hr, CV1 cells
Procedure: (§5) FIGS. 4A, 4B and 4C display evidence of transactivation by RXRα homodimers or RXRα:RARα heterodimers is not modulated by CK1α. For the left panel, CV1 cells were cotransfected with pFlag-RXRα, reporter plasmid pRXRE-Luc, β-galactosidase expression vector, plus increasing amount of CK1α expression vector (lane 1 and 2: 0 ng; lane 3: 50 ng; lane 4: 100 ng; lane 5: 200 ng), or sense strand CK1α or double-strand RNAi CK1α, or sense strand CK1ε or double-strand RNAi CK1ε. […] Data are presented as the activity of luciferase normalized to that of β-galactosidase activity, which served as an internal control for transfection efficiency and are the mean of three independent experiments with triplicates for each. For the middle panel, CV1 cells were cotransfected with pFlag-RXRα, pRAR-V5, reporter plasmid pRARE-Luc, β-galactosidase expression vector, plus sense strand CK1α or double-strand RNAi CK1α. […] Data are presented as the activity of luciferase normalized to that of β-galactosidase activity and are the mean of three independent experiments with triplicates for each. CK1α could efficaciously be depleted in CV-1 cells by small double-strand RNAi, judged by immunoblotting the total cell lysates with anti-CK1α antibodies (left panel).
CK1α is the smallest in the CK1 family. […] The role of CK1α in transactivation by RXR homodimers and RXR:RAR heterodimers was determined. […]

DT40RXR cells [2] = experiment: Activation of caspases 3 and 9; assay type: cell-based
Procedure: (§6) Caspase activities were measured following manufacturer's protocols and presented as fold increase in relative to control.
as §4

DT40RXR cells [3] = experiment: Apoptosis by FACS DNA content analysis (propidium iodide); assay type: cell-based; conditions: 10 nM, 3 days, 10.4% without agonist
Procedure: (§7) Cells having a DNA content less than the G1 population were considered as apoptotic cells.
as §3

Jurkat cells = experiment: as above; assay type: cell-based; conditions: 10 nM, 3 days, 2.8% without agonist
Procedure: as §7, §3

DT40 cells [4] = experiment: as above; assay type: cell-based; conditions: 10 nM, 3 days, cells with DNA content less than G1, 3.5% without agonist
Procedure: as §7, §3

JurkatRXR cells = experiment: as above; assay type: cell-based; conditions: 10 nM, 3 days, 11.9% without agonist
Procedure: as §7, §3

DT40 cells [5] = experiment: Activation of caspases 3 and 9; assay type: cell-based
Procedure: as §6, §4

RXR:RAR heterodimers = experiment: Transactivation assay, pRARE-Luc reporter in CV-1 cells; assay type: cell-based; conditions: CV-1 cells cotransfected with RXRα and RARα; 10^-7 M, 16 hr
Procedure: as §5
Similar transfection experiments were also performed using pRARE-Luc as reporter with cotransfection of RXRα and RARα. […]

CK1α = CK1α (Homo sapiens, UniProt P48729); experiment: In vitro kinase assay of RXR immunoprecipitated complexes with inhibitor in the assay mixture; assay type: biochemical; conditions: RXR immunoprecipitated complexes from Compound 1-treated HEK293 Flag-RXR cells; read-out: IC50 for inhibition of phosphorylation of RXR and p160
Procedure: To determine that the kinase activity which phosphorylates RXR and p160 in the RXR complex is only contributed by CK1α, in vitro kinase assays of the RXR immunoprecipitated complexes in the presence of various concentrations of a known CK1 specific inhibitor CK1-7 (25) was performed.
The immunoprecipitated complexes were re-suspended in 15 μl of kinase assay buffer (30 mM Tris-HCl, pH 7.4 and 10 mM MgCl2). The kinase reactions were initiated by adding 2 μl of 50 μM [γ-32P]ATP (10 μCi) into the immunocomplexes, followed by incubation at 30° C. with shaking for 20 min, and terminated by adding 6 μl of 4× SDS sample loading buffer. After heating at 100° C. for 5 min, the reaction mixtures were resolved by 4-12% SDS-PAGE. The incorporation of ^32P into RXR and other proteins was determined by subjecting the gel to autoradiography.

CK1 isoforms = conditions: literature (refs 25,26); read-out: reported IC50 for inhibition of CK1 isoforms; cited from earlier work

Chain of CK1α (P48729 whole entry, one chain of several, canonical isoform): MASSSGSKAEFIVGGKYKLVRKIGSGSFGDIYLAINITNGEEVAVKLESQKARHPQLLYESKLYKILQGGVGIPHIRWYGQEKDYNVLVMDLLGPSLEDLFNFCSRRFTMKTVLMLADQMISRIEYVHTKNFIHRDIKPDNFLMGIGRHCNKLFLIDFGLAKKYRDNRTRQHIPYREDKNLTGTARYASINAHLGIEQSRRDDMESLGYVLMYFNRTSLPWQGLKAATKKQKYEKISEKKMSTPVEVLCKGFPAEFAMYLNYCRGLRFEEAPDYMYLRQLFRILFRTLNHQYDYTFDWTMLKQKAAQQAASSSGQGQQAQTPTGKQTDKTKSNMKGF

Compound: COc1ccc(C[C@H]2NC[C@H](O)[C@H]2OC(C)=O)cc1 [anisomycin]
phosphorylation of MKK4 (MKK4): increased phosphorylation of both endogenous and overexpressed MKK4
effect on kinase activities in the RXR immunocomplexes (RXR-associated kinase): not affected by anisomycin treatment

Compound: C[S+]([O-])c1ccc(-c2nc(-c3ccncc3)c(-c3ccc(F)cc3)[nH]2)cc1 (stereo not shown) [SB203580]
effect on kinase activities in the RXR immunocomplexes (RXR-associated kinase): not influenced to a significant degree

kinase activity in Flag-RXR immunoprecipitated complex when ligand added only to the in vitro kinase reaction (RXRα; immunoprecipitation in absence of Compound 1, added later to kinase reaction mixture): could not be detected
Compound: CC(/C=C/C1CC1(C)c1ccc2c(c1)C(C)(C)CCC2(C)C)=C\C(=O)O (stereo not shown) [Compound 1]
apoptotic populations (Jurkat-pSupCK1α cells): dramatic increase of apoptotic populations
efficacy in cell death/growth inhibition on overexpression of RXR [1]: dramatically increase the efficacy
recruitment of protein kinase to RXR immunocomplexes (RXRα): contained the kinase that could phosphorylate RXR and the 160 kDa protein
DR-1 luciferase expression (RXRα homodimers): greatly stimulated
activation of caspases 3 and 9 (DT40RXR cells [2]): activated
apoptotic cells (DT40RXR cells [3]): 57.3%
apoptotic cells (Jurkat cells): 3.4%
apoptotic cells (DT40 cells [4]): 4.5%
apoptotic cells (JurkatRXR cells): 36.4%

Compound: Oc1ccc(-c2nc(-c3ccncc3)c(-c3ccc(F)cc3)[nH]2)cc1 [SB202190]
effect on kinase activities in the RXR immunocomplexes (RXR-associated kinase): not influenced to a significant degree

Compound: OO [Compound H2O2, hydrogen peroxide, reference compound]
activation of caspases 3 and 9 (DT40RXR cells [2]): could activate caspases 3 and 9
activation of caspases 3 and 9 (DT40 cells [5]): could activate caspases 3 and 9

Compound: COc1cccc(-c2cc(=O)c3ccccc3o2)c1N [PD98059]
effect on kinase activities in the RXR immunocomplexes (RXR-associated kinase): not influenced to a significant degree

recruitment of protein kinase to RXR immunocomplexes (RXRα): did not recruit the protein kinase
Compound: C/C(=C\c1ccc(C(=O)O)cc1)c1ccc2c(c1)C(C)(C)CCC2(C)C [TTNPB, reference compound]
activation of RXR:RAR heterodimers (pRARE-Luc) (RXR:RAR heterodimers): activated

Compound: insulin: insulin used to stimulate RXR transfected cells for 30 minutes
effect on kinase activities in the RXR immunocomplexes (RXR-associated kinase): not influenced to a significant degree

IC50 (CK1α): ~30 µM
Compound: NCCNS(=O)(=O)c1ccc(Cl)c2ccncc12 [CK1-7, N-(2-amino-ethyl)-5-chloroisoquinoline-8-sulfonamide]
IC50 (CK1 isoforms): 10 to 100 µM
